The text below walks through data of US8507512B2, “Soluble guanylate cyclase activators” (Merck Sharp & Dohme Corp., priority 2009, dated 2013).

A value given as a limit tells only on which side of the number the result lay.

This test concerns the target T1, sGC α1/β1 heterodimer (Homo sapiens, UniProt Q02108+Q02153).
T1 construct: expressed in transfected cells
T1 sequence (Q02108 1-690 partner): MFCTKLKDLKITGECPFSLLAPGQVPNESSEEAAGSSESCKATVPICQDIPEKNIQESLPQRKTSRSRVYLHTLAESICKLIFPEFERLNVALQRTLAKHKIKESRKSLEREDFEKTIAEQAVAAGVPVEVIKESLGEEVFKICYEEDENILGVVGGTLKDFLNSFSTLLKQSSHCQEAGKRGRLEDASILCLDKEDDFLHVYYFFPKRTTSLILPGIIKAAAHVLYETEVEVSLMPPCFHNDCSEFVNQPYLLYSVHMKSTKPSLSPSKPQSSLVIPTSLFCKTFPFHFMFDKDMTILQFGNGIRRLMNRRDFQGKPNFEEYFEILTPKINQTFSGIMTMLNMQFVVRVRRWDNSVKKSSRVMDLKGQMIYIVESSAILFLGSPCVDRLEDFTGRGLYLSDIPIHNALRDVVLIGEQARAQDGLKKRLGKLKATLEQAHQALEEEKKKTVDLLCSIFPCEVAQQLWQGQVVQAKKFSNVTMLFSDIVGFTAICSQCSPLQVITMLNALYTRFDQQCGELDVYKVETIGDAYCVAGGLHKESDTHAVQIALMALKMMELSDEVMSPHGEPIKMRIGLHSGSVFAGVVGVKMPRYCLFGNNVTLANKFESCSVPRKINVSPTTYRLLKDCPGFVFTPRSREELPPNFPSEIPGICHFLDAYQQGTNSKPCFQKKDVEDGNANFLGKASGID
T1 sequence (Q02153 1-619): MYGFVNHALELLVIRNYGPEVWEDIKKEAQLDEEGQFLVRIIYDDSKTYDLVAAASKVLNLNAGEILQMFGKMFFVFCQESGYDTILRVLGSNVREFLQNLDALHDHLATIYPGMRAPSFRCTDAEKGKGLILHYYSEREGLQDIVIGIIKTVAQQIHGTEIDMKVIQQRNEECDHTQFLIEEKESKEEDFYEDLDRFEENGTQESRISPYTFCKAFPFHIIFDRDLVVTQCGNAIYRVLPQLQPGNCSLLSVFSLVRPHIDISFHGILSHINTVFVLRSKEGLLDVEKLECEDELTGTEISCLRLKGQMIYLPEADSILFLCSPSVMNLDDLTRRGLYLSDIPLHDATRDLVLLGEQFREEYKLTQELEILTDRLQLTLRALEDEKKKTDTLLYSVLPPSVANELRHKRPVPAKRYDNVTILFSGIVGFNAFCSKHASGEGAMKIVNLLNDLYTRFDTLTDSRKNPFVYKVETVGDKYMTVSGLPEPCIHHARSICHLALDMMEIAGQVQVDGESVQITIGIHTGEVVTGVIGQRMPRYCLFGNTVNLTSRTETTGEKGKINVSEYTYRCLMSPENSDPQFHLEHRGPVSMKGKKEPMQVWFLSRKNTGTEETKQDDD
Briefly: Cell-Based sGC Functional Assay (CASA Assay). To be noted: CHO-K1/sGC cells, with ODQ incubation (10 μM), 1 hr at 37° C., intracellular cGMP by HTRF; for EC50: read-out: IP (nM) (inflection point); for fold induction: read-out: maximum fold induction over DMSO control. On the procedure: Cell-Based sGC Functional Assay (CASA Assay)
Rationale: sGC is a heme-containing enzyme that converts GTP (guanosine 5′-triphosphate) to secondary messenger cGMP. Increases in cGMP levels affect several physiological processes including vasorelaxation through multiple downstream pathways. […] Heme-independent activators (HIAs) preferentially activate sGC containing a ferric heme group, which can be generated upon incubation with 1H-(1,2,4)oxadiazolo(4,3-a) quinoxalin-1-one (ODQ). To determine the effect of sGC activators on enzyme activity, the CASA assay was developed to monitor the generation of cGMP in a cell line that stably expresses the heterodimeric sGC protein.
Methods: A CHO-K1 cell line stably expressing the sGC αl/β1 heterodimer was generated using a standard transfection protocol. CHO-K1 cells were transfected with plasmids pIREShyghsGCα1 and pIRESneo-hsGCβ1 simultaneously using FUGENE reagent. Clones that stably express both subunits were selected with hygromycin and neomycin for ˜2 weeks. Clone #7 was chosen for the assay and was designated CHO-K1/sGC. CHO-K1/sGC cells were maintained in F-K12 medium containing 10% heat-inactivated Fetal Bovine Serum (FBS), 100 μg/mL penicillin/streptomycin, 0.5 mg/mL hygromycin and 0.25 mg/mL G418. On the day of the assay, cells were harvested in EBSS (Earle's balanced salt solution) Assay Buffer (EAB) containing 5 mM MgCl2, 10 mM HEPES (4-(2-hydroxyethyl)piperazine-1-ethanesulfonic acid) and 0.05% BSA (bovine serum albumin) and cell density was adjusted to 2×10^6/mL with EAB. IBMX (3-isobutyl-1-methylxanthin, 0.5 mM) was added to inhibit degradation of cGMP. Compounds were diluted from DMSO stock solutions and added to the assay at a final DMSO concentration of 1%. Cells were incubated with compounds in the presence and absence of 10 μM of 1H-(1,2,4)oxadiazolo(4,3-a) quinoxalin-1-one (ODQ) for 1 hr at 37° C. At the end of the incubation period, the reaction was terminated and the cells were lysed. The level of intracellular cGMP was determined using an HTRF-based assay kit (CisBio, 62GM2PEC), which detects the displacement of a fluorescence labeled cGMP from its specific antibody. The amount of cGMP was plotted against compound concentration in PRISM software and the inflection point (IP) and maximum fold induction over DMSO control were derived from the plot.
In general terms: In TR-FRET formats the signal depends on donor and acceptor labels being close together.

Regarding `COC(=O)N1CCC(c2ccc(COc3c(F)cccc3-c3cccc(-n4ncc(C(=O)O)c4C(F)(F)F)n3)cc2)CC1` [Example 5, 1-{6-[3-fluoro-2-({4-[1-(methoxycarbonyl)piperidin-4 yl]benzyl}oxy)phenyl]pyridin-2-yl}-5-(trifluoromethyl)-1H-pyrazole-4-carboxylic acid], the EC50 was 26.9 nM and the fold induction worked out at 244.
Consider `Cc1cc(C2CCN(CC(F)(F)F)CC2)ccc1COc1ccccc1-c1cccc(-n2ncc(C(=O)O)c2C(F)(F)F)n1` [Example 3, 1-(6-(2-((2-Methyl-4-(1-(2,2,2-trifluoroethyl)piperidin-4-yl)benzyl)oxy)phenyl)pyridin-2-yl)-5-(trifluoromethyl)-1H-pyrazole-4-carboxylic acid], for which the EC50 was determined as 10.4 nM and the fold induction was 127.
For the molecule `O=C(O)c1cnn(-c2cccc(-c3ccccc3OCc3ccc(C4CCN(CC(F)(F)F)CC4)cc3)n2)c1C(F)(F)F` [Example 1, 1-[6-[2-[[4-[1-(2,2,2-Trifluoroethyl)-4-piperidinyl]phenyl]methoxy]phenyl]-2-pyridinyl]-5-(trifluoromethyl)-1H-pyrazole-4-carboxylic acid], the EC50 was found to be 51.5 nM and the fold induction worked out at 281.
`O=C(O)c1cnn(-c2cccc(-c3cccc(C(F)(F)F)c3OCc3ccc(C4CCN(C(=O)C5CC5)CC4)cc3)n2)c1C(F)(F)F` [Example 81, 1-(6-(2-((4-(1-(cyclopropylcarbonyl)piperidin-4-yl)benzyl)oxy)-3-(trifluoromethyl)phenyl)pyridin-2-yl)-5-(trifluoromethyl)-1H-pyrazole-4-carboxylic acid]: the EC50 turned out to be 2.6 nM and the fold induction stood at 170.
Taken in the same sequence, the figures for `COC(=O)N1CCC(c2ccc(COc3c(-c4cccc(-n5ncc(C(=O)O)c5C(F)(F)F)n4)cccc3C(F)(F)F)cc2)CC1` [Example 77, 1-(6-(2-((4-(1-(methoxycarbonyl)piperidin-4-yl)benzyl)oxy)-3-(trifluoromethyl)phenyl)pyridin-2-yl)-5-(trifluoromethyl)-1H-pyrazole-4-carboxylic acid] were 1.5 nM and 151.
Taken in the same sequence, the figures for `O=C(O)c1cnn(-c2cccc(-c3cc(F)cc(Cl)c3OCc3ccc(C4CCN(CC(F)(F)F)CC4)cc3)n2)c1C(F)(F)F` [Example 2, 1-(6-(3-Chloro-5-fluoro-2-((4-(1-(2,2,2-trifluoroethyl)piperidin-4-yl)benzyl)oxy)phenyl)pyridin-2-yl)-5-(trifluoromethyl)-1H-pyrazole-4-carboxylic acid] were 2.4 nM and 189.
In the same order, the values of `CCC(=O)N1CCC(c2ccc(COc3c(-c4cccc(-n5ncc(C(=O)O)c5C(F)(F)F)n4)cccc3C(F)(F)F)cc2)CC1` [Example 76, 1-(6-(2-((4-(1-propionylpiperidin-4-yl)benzyl)oxy)-3-(trifluoromethyl)phenyl)pyridin-2-yl)-5-(trifluoromethyl)-1H-pyrazole-4-carboxylic acid] are less than 0.5 nM and 216.
Take `O=C(O)c1cnn(-c2cccc(-c3cccc(Cl)c3OCc3ccc(C4CCN(C(=O)C5CC5)CC4)cc3)n2)c1C(F)(F)F` [Example 84, 1-(6-(3-chloro-2-((4-(1-(cyclopropylcarbonyl)piperidin-4-yl)benzyl)oxy)phenyl)pyridin-2-yl)-5-(trifluoromethyl)-1H-pyrazole-4-carboxylic acid]: the EC50 was determined as 5.4 nM and the fold induction amounted to 50.
